Test results from patent publication US7393857B2, “Use of 5-HT3 receptor antagonists for treating musculoskeletal diseases” (Novasearch AG, priority 1999, dated 2008).

Tests used:
Type in all cases: in vivo, human
[1] = test system: patient with damage to the meniscus and arthritic change leading to synovial irritation with knee joint effusion; assay: Clinical case: synovial irritation with knee joint effusion, i.v. tropisetron (Example 2, second patient)
Method: […] 2 mg doses of tropisetron are administered i.v. over a period of 17 days with 15 injections, one each day with a 2 days pause in therapy.

[2] = test system: patient with Morbus Still; assay: Left knee joint irritation (Morbus Still), intraarticular injection (Example 4c); settings: for knee joint circumference: before 44 cm; for pain under strain (VAS): before 70; for pain at rest in the VAS (0-100): before 98
From the text: (§1) Pain is subsequently determined on a visual analogue scale (VAS) that goes from 0 mm (no pain) to 100 mm (strongest pain). • 4a) Enthesiopathy (Insertion Tendopathy) (with infiltration): • (i) patient; Diagnosis: epicondylitis. Rest pain before local injection of tropisetron 30 mm, 7 days later 0 mm. • (ii) patient, diagnosis: periarthropathia humeroscapularis. Rest pain before local injection of tropisetron 85 mm, 7 days after local injection 45 mm. • (iii) Patient, diagnosis: epicondylitis. Rest pain before local injection of tropisetron 35 mm, 7 days thereafter 0 mm. • 4b) Rheumatoid arthritis (intraarticular injection): • (i) patient.
Patient, Morbus Still diagnosed 1.5 years ago. Despite basic treatment with 15 mg methotrexat per week and 20 mg prednisolone per day, the patient suffers from swelling and overheating of the left knee joint for the first time in February 1999. Pain at rest in the VAS 98 (0-100), pain under strain 70. Obvious articular effusion. Knee joint circumference 44 cm, straightening/bending 0°-10°, 115°. 24 hours after an intraarticular injection with 2 mg tropisetron pain at rest in the Visual Analog Scale (VAS) 0, pain under strain 70. […] 7 days later pain at rest in the VAS 0, pain under strain 57, straightening/bending 0°,0°,130°, knee joint circumference 40.5 cm. • 4e) Gonarthrosis: […]

[3] = test system: patients exhibiting rheumatoid arthritis and severe consequential synovial inflammation; assay: Clinical trial: synovial inflammation/synovitis in rheumatoid arthritis, intraarticular tropisetron (Example 1); settings: 2 mg intraarticularly once
[4] = test system: patients exhibiting implant/insertion tendopathy; assay: Clinical trial: implant/insertion tendopathy, local injection of tropisetron (Example 3); settings: 2 mg injected once in the area of greatest pain
Method: The condition treated results in the case of the first patient from epicondylitis radialis, in the case of the second patient from insertion tendopathy in the area of insertion of the deltoid muscle and, in the case of the third patient from an enthesiopathy of the Malleolus lateralis. In all three cases, tropisetron is injected once at a dosage of 2 mg in the area of greatest pain, directly into the tissues. In all three cases severity of pain decreases within a period of 60 min. and virtually complete remittal is achieved within 24 hrs., indicating remission from disease remission.

[5] = test system: patients with epicondylitis or periarthropathia humeroscapularis; assay: Enthesiopathy (insertion tendopathy) with infiltration, pain on VAS (Example 4a); settings: 7 days after local injection
From the text: as §1

[6] = test system: patient with cervical syndrome; assay: Spinal syndrome: cervical syndrome, i.v. administration (Examples 5 and 6(i)); settings: 2 mg i.v., before injection 68 mm
From the text: as §1
Patient, diagnosis: cervical syndrome. Before injection of 2 mg tropisetron 68 mm rest pain, 24 hours later 35 mm, at day 7 18 mm.
Patient, diagnosis: cervical syndrome. Before i.v. injection of 2 mg tropisetron 68 mm rest pain, 24 hours later 35 mm, at day 7 18 mm. • (ii) Lumbalgia: […]

[7] = test system: patient with repeated exudation from the knee joint consequential to damage to the meniscus; assay: Clinical case: repeated knee joint exudation after meniscus damage, intra-articular tropisetron (Example 2, first patient); settings: 2 mg intra-articularly
Method: Prior to the trial the patient received injections of glucocorticoid. The patient receives an injection of 2 mg of tropisetron administered intra-articularly.

[8] = test system: patient with activated gonarthritis with effusion; assay: Gonarthrosis, intra-articular injection (Example 4e); settings: intra-articular 2 mg; for pain at rest on the visual analog scale for pain (0-100): before 43
From the text: as §1
Patient has activated gonarthritis with effusion for 2 months. Only short-term pain reduction by means of non-steroidal antiphlogistics could be achieved. Following an intra-articular injection with 2 mg tropisetron, pain at rest after 24 hours on the visual analog scale for pain (0-100) sinks from 43 to 25, after 2 days to 13, after 7 days to 10 and in a follow-up check after 17 days to 4. The analog values for pain under strain are 75, 45, 10 and 10, respectively. The effusion is gone after 7 days, as is the overheating of the knee joint.

[9] = 24 hours after intraarticular injection of 2 mg
[10] = 7 days later, intraarticular 2 mg

`CN1[C@@H]2CC[C@H]1C[C@@H](OC(=O)c1c[nH]c3ccccc13)C2` [tropisetron, Indol-3-yl-carboxylic acid-endo-8-methyl-8-aza-bicyclo[3,2,1]-oct-3-yl-ester] was tested, and the “movement of the knee joint” value ([1]; 2 mg i.v. daily) was “clearly improved”, the “time until exudation from the knee joint is completely inhibited” value ([1]; 2 mg i.v. daily, without any other medication) was at most 8 days and the symptoms ([1]; 2 mg i.v., 15 injections over 17 days, following continuation of injections) was “virtually free of symptoms”. The “persistence of improvement in condition after completion of therapy” value ([1]; 2 mg i.v., 15 injections over 17 days, observation following completion of therapy) was “continues over a further 7 days observation”, the pain ([1]; 2 mg i.v., 24 hours after the first i.v. injection) was “significant improvement of pain” and the “joint swelling and effusion” value [2, 9] was “significant reduction of joint swelling and effusion”. For the same compound, the knee joint circumference [2, 9] was 41 cm, the “pain under strain (VAS)” value [2, 9] was 70 and the “pain at rest in the VAS (0-100)” value ([2]; 24 hours after intraarticular injection of 2 mg, on methotrexat and prednisolone) was 0. For the same compound, the knee joint circumference [2, 10] was 40.5 cm, the “pain under strain (VAS)” value [2, 10] was 57 and the “pain at rest in the VAS (0-100)” value [2, 10] was 0. The symptoms ([3]; both patients examined over one week following treatment) was “free of symptoms”, the remission from pain ([3]; two patients (shoulder joint, knee joint), within a few hours) was “almost complete remission from pain” and the “further improvements after injection” value [4] was “increase of strength and of flexibility of the affected body part”. For the same compound, the “period within which severity of pain decreases” value ([4]; all three patients) was at most 60 min, the “time within which virtually complete remittal is achieved” value ([4]; all three patients) was at most 24 h and the “rest pain (VAS)” value ([5]; patient (i), epicondylitis, before injection 30 mm) was 0 mm. The “rest pain (VAS)” value ([5]; patient (ii), periarthropathia humeroscapularis, before injection 85 mm) was 45 mm, the “rest pain (VAS)” value ([5]; patient (iii), epicondylitis, before injection 35 mm) was 0 mm and the “rest pain (VAS)” value ([6]; 24 hours later) was 35 mm. For the same compound, the “rest pain (VAS)” value ([6]; at day 7) was 18 mm, the pain ([7]; after 45 min.) was “marked reduction of pain” and the “effusion from the knee joint” value ([7]; after 5 hours) was “major reduction of effusion”. The symptoms ([7]; without further therapy, observation period of 5 days) was “free of symptoms”, the “pain at rest on the visual analog scale for pain (0-100)” value (“pain at rest on the visual analog scale” for short) ([8]; after 24 hours) was 25 and the “pain at rest on the visual analog scale” value ([8]; after 2 days) was 13. The effusion ([8]; after 7 days) was “gone”, the “overheating of the knee joint” value ([8]; after 7 days) was “gone” and the “pain at rest on the visual analog scale” value ([8]; after 7 days) was 10. For the same compound, the “pain at rest on the visual analog scale” value ([8]; follow-up check after 17 days) was 4, the “pain under strain, visual analog scale (0-100)” value ([8]; fourth of four printed values, time point unclear (7 or 17 days)) was 10 and the “pain under strain, visual analog scale (0-100)” value ([8]; second of four printed values, presumably after 24 hours, first value (before) 75) was 45. For the same compound, the “pain under strain, visual analog scale (0-100)” value ([8]; third of four printed values, time point unclear (2 or 7 days)) was 10.
